This is an account of results in patent publication US20220193067A1, “QUINOLINE COMPOUND OR PHARMACEUTICALLY ACCEPTABLE SALT THEREOF FOR TREATING EWING'S SARCOMA” (CHIA TAI TIANQING PHARMACEUTICAL GROUP CO., LTD., priority 2019, published 2022).

Where a name gives a salt, the structure may show the parent alone.

In assay [1] the test system is human Ewing's sarcoma cells A673. Description: Effect on growth of Ewing's sarcoma, A673 subcutaneous xenograft in nude mice. The class given is in vivo, BALB/cA-nude mice. The note with it: 6.25 mg/kg orally daily for 14 consecutive days; A673 subcutaneous tumors in nude mice. How it is done:
The dihydrochloride salt of the compound of formula I was dissolved in water to a concentration of 25 mg/mL and then further diluted with distilled water to a concentration of […].
BALB/cA-nude mice, feeding environment: SPF grade. Nude mice were inoculated subcutaneously with human Ewing's sarcoma cells A673, and randomly grouped (d0) after tumors grew to 100-250 mm^3.
The dihydrochloride of the compound of formula I (a dosage of 6.25 mg/kg) was orally administered daily to the animals in a volume of 10 mL/kg for 14 consecutive days. The tumor volume was measured 2-3 times per week, the mice were weighed, and the data was recorded.
The equation for calculating tumor volume (V) is as follows: V=½×a×b^2, where a and b represent length and width, respectively.
T/C (%)=(T-T0)/(C-C0)×100%, where T and C represent the tumor volumes of the administration group mice and the control group (i.e., solvent group) mice, respectively, at the end of the experiment; T0 and C0 represent the tumor volumes of administration group mice and the control group (i.e., solvent group) mice, respectively, at the time of grouping and administration (d0).
The equation for calculating relative tumor volume (RTV) after administration is as follows: RTV=TV/TV0 (TV represents tumor volume at each measurement after administration, and TV0 represents tumor volume at the time of grouping and administration (d0)).

In assay [2] the test system is Human Ewing's sarcoma cell line A673. Nature of the assay: Proliferation of Ewing's sarcoma cells (MTT method), combination with VAC-2 regimen. The class given is cell-based. The note with it: combined with 2 μg/mL vincristine, 75 μg/mL doxorubicin and 500 μg/mL cyclophosphamide. The method, then:
The test drugs were dissolved in dimethyl sulfoxide to prepare a 100 mmol/L mother solution, which was stored at −20° C. for later use. When in use, the mother solution was prepared with a DMEM serum culture medium to reach a required concentration; vincristine, doxorubicin and cyclophosphamide were mixed (VAC-2 regimen), and the dihydrochloride diluent of the compound of formula I was mixed with vincristine, doxorubicin and cyclophosphamide. […]
The ICso value can be measured by a conventional method in the art (e.g., MTT method), or can be measured by the following method (MTT method):
Cells in logarithmic growth phase were inoculated in a 96-well culture plate (180 μL/well, 10^5 cells/well); after 2 h of incubation at 37° C./5% CO2, the cells were added with the dihydrochloride of the compound of formula I (solutions at gradient concentrations of 0, 0.005, 0.1, 0.05, 0.1, 0.5, 1.5, 4, 12 and 30 μg/mL), 2 μg/mL vincristine, 75 μg/mL doxorubicin and 500 μg/mL cyclophosphamide, and the resulting mixtures were incubated. […] The next day, OD values were measured at 570 nm and 630 nm wavelengths using a microplate reader (SPECTRA max 190) (calculated by subtracting OD values measured at 630 nm (the control wavelength) from all OD values measured at 570 nm), and the cell growth inhibition rate was calculated according to the following equation: […]
(Tetrazolium assays rely on reduction of a dye to a coloured formazan, in cell work by metabolically active cells.)

Assay [3] concerns Human Ewing's sarcoma A673 cells. Description: Apoptosis of Ewing's sarcoma cells, Annexin-V-FITC/PI flow cytometry. The assay is classed as cell-based. The following applies: different concentrations (0-30 μg/mL) added to vincristine+doxorubicin+cyclophosphamide; 24 h. How it is done:
Human Ewing's sarcoma A673 cells in logarithmic growth phase were added at 10^5 cells/well to a DMEM complete culture medium containing 2 μg/mL vincristine, 75 μg/mL doxorubicin and 500 μg/mL cyclophosphamide, and to a DMEM complete culture medium containing the dihydrochloride of the compound of formula I (at concentrations of 0, 0.005, 0.1, 0.05, 0.1, 0.5, 1.5, 4, 12 and 30 μg/mL), 2 μg/mL vincristine, 75 μg/mL doxorubicin and 500 μg/mL cyclophosphamide. The resulting mixtures were incubated for 24 h, and then the cells were collected, centrifuged at 1000 r/min for 3-5 min, and washed with PBS. Then the apoptosis of the cells was detected using an Annexin-V-FITC/PI apoptosis detection kit. The cells were resuspended in 100 μL of 1×Binding buffer solution, and 5 μL of Annexin-V-FITC and 2.5 μL of PI dye were added. The mixture was shaken and mixed well in the absence of light, reacted for 15 min at room temperature, added with 300 μL of 1×Binding buffer solution, mixed well, and then subjected to detection by a flow cytometer. The test was repeated 3 times.
In general terms: In flow cytometry, cells or beads pass a laser one at a time.

Another assay relates to Ewing's sarcoma patients. Nature of the assay: Clinical trial of capsule combined with VAC-2 regimen in Ewing's sarcoma patients. The assay is classed as in vivo, human. The following applies: 12 mg capsule orally once daily, 2 weeks on/1 week off. How it is done:
A clinical trial was carried out in Ewing's sarcoma patients with measurable lesions (according to RECIST 1.1) for the combination of the dihydrochloride capsule of the compound of formula I and a second therapeutic agent (VAC-2 regimen). Patients in the patient group comprised patients who had previously received chemotherapy and those who had not. The patients were orally administered with 12 mg of the dihydrochloride capsule of the compound of formula I once daily (2 weeks of treatment and 1 week of interruption constitute one treatment cycle), and meanwhile the patients were treated with the VAC-2 regimen: intravenous infusion of 2 mg of vincristine on day 1, intravenous infusion of 75 mg/m^2 of doxorubicin on day 1, and intravenous infusion of 1200 mg/m^2 of cyclophosphamide on day 1 (28 days constitute one cycle). The evaluation endpoints included: efficacy endpoints, e.g., progression-free survival (PFS), objective response rate (ORR), duration of response (DOR), stable disease (SD) rate, clinical benefit rate (CBR), overall survival (OS), etc.; safety endpoints, e.g., incidence and severity of adverse events; and quality of life.

Regarding `COc1cc2c(Oc3ccc4[nH]c(C)cc4c3F)ccnc2cc1OCC1(N)CC1` [1-1-[[[4-(4-fluoro-2-methyl-1H-indol-5-yl)oxy-6-methoxyquinolin-7-yl]oxy]methyl]cyclopropylamine dihydrochloride], the “growth of Ewing's sarcoma” value in assay [1] is recorded as “significantly inhibit the growth of Ewing's sarcoma”. For the same molecule, the “inhibition effect on proliferation of A673 cells” value in assay [2] is recorded as “definite inhibition effect”. Also, in assay [3], the “apoptosis caused by the VAC-2 regimen” value is on record as “remarkably enhance apoptosis”. Moreover, in the assay with Ewing's sarcoma patients, the overall survival entry is given as “can prolong overall survival” and the “treatment of Ewing's sarcoma (efficacy)” value is “effective for treatment of Ewing's sarcoma”.
